In a melting point compilation (Tetko et al.; mined from patent text by program, amines drawn as free bases though some values may be those of a salt):

`CCc1nc(-c2cccc(C(=O)O)c2)c(-c2ccnc(N)c2)s1` gave a melting point of 273 to 274 °C.
`O=C(O)Cc1c(-c2ccccc2)c2cc3c(cc2oc1=O)C(=O)OC3` showed a melting point of 226 to 227 °C.
With `COc1ccc2c(c1)c(CCO)c(C)n2-c1ncnc2cc(Cl)ccc12` the melting point was 148 to 150 °C.
In the case of `CC(C)=CCO[C@H]1NC(=O)[C@@H]1NC(=O)c1ccccc1`, the melting point was 92 °C.
For `CCOc1c(SC(F)(F)F)c(C(N)=O)nn1-c1c(Cl)cc(C(F)(F)F)cc1Cl`, the melting point was 161 °C.
Molecule `COC(=O)CC(NC1CC1)=C(C(=O)OC)C(=O)C(F)(F)C(F)(F)F` has a melting point of 32 to 34 °C.
Molecule `O=C1Nc2cccnc2N(CCCCN2CCCCC2)c2ccccc21` has a melting point of 131 to 132 °C.
With `O=c1[nH]c2cc(Cl)ccc2c(O)c1-c1cccc2ccccc12` the melting point was > 350 °C.
Molecule `COc1nc(C)nc(NC(=O)NS(=O)(=O)c2cccc3c2C(Cl)=CC3)n1` has a melting point of 168 to 170 °C.
In the case of `COC(=O)c1cc(-c2ccc(OCc3ccccc3)cc2)n(-c2ccc(S(N)(=O)=O)cc2)n1`, the melting point was 196 to 198 °C.
In the case of `O=c1oc(-c2ccc(F)cc2)nc2cccc(Cl)c12`, the melting point was 159 to 162 °C.
Molecule `Nc1cccc(Nc2nccc(Sc3cccc(Br)c3)n2)c1` has a melting point of 109 to 110 °C.
Work on `CNC(=O)Oc1ccc(NC(=O)C(F)(F)Cl)c(C)c1` yielded a melting point of 156 to 158 °C.
`CCC(CC)(CCc1ccc(Cl)cc1)NC(=O)n1nc(N(C)C)n(N=C(C)CC(C)C)c1=O` showed a melting point of 121 °C.
`CCOC(=O)CCc1ccc2c(c1)CC(CNC(=O)OC(C)(C)C)CC2` (centres undefined) gave a melting point of 69 to 71 °C.
In the case of `O=C(Nc1ccccc1)C1=C(N2CCCCC2)COC1=O`, the melting point was 157 to 158 °C.
Molecule `Cc1ccccc1S(=O)(=O)NC(=O)Nc1cc(C)c(S(=O)(=O)C[N+](=O)[O-])c(C)c1` has a melting point of 194 to 196 °C.
For `CCCn1c(COCC)nc2c(N)nc3cc(OCC(=O)N4CCOCC4)ccc3c21`, the melting point was 213 °C.
For `CCOC(=O)c1cn(C)c2cnc3cc(F)c(N4CCN(C(=O)CC(F)(F)F)C(c5ccc(OCc6ccccc6)c(OC)c5)C4)cc3c2c1=O` (centres undefined), the melting point was 154 °C.
In the case of `CCC(=O)Nc1cccc(NC(=O)CC(C)=O)c1`, the melting point was 70 °C.
`CS(=O)(=O)Nc1ccc(NC(=O)C(=O)N2CCC(Cc3ccc(F)cc3)CC2)cc1` showed a melting point of 178 to 182 °C.
Work on `CCOC(=O)c1ccc(OCC(=O)c2ccc3c(c2)C(C)(C)CCC3(C)C)cc1` yielded a melting point of 105 to 107 °C.
In the case of `CC(=O)Nc1ccc(C=CC2CSC(=O)NN2)cc1` (centres undefined), the melting point was 235 to 240 °C.
For `Cc1cc(C)cc(Oc2c(C=O)c(C)[nH]c(=O)c2I)c1`, the melting point was > 260 °C.
`COC(=O)CCC#Cc1ccccc1[N+](=O)[O-]` showed a melting point of 44 to 46 °C.
With `Cc1ccc2c(c1C)N(c1ncnc3cnccc13)CC2` the melting point was 248 °C.
With `Cc1nc2c(O)cc(C(=O)N(C)C)cc2n1C` the melting point was 248 °C.
`CCCCCCCCCCOc1ccc(-c2ccc(CCC(C)O)cc2)cc1` (single isomer, unassigned; (+)) showed a melting point of 87 to 89 °C.
With `Cc1cc(S(N)(=O)=O)n(C)n1` the melting point was 63 to 66 °C.
In the case of `CCNC(=O)n1nc(Oc2ncc(C(F)(F)F)cc2Cl)c(CC)c1C`, the melting point was 101 to 102 °C.
`CN(C)Cc1nc(CSCCNc2ncc(CC3CCCO3)c(=O)[nH]2)cs1` (centres undefined) gave a melting point of 118 to 123 °C.
In the case of `O=C(NCCN1CCCCC1n1c(=O)[nH]c2ccccc21)c1cccc(F)c1` (centres undefined), the melting point was 226 °C.
For `O=C1NS(=O)Oc2ccccc21` (centres undefined), the melting point was 180 to 182 °C.
`CCOC(=O)C1C(=O)c2cc(F)ccc2N=C1c1ccccc1` (centres undefined) showed a melting point of 277 to 279 °C.
Molecule `Cc1cc(Cl)c2cc(O)ccc2n1` has a melting point of 233 °C.
With `ON=Cc1ccc2c(c1)ncn2-c1cccc(CNCc2ccc(F)c(F)c2)c1` the melting point was 165 to 167 °C.
In the case of `Cn1c(=O)[nH]c(=O)c2c1ncn2CC1OCCO1`, the melting point was 276 to 278 °C.
`Fc1ccc(CSc2nnc(-c3ccc4c(c3)CCO4)o2)cc1F` gave a melting point of 138 to 139 °C.
`CCCCn1c(C)c(N)c(=O)n(C)c1=O` showed a melting point of 74 to 75 °C.
`COC(=O)CCCN(C(=O)C(C)N(C(C)=O)c1ccc(OC)cc1)c1ccc(OC)cc1` (centres undefined) showed a melting point of 111 to 113 °C.
`O=C1CN(c2ccc(Cc3ccccc3)cc2)C(=S)N1c1ccc([N+](=O)[O-])cc1` gave a melting point of 209 °C.
Work on `CCOc1ccc2[nH]c(=O)n(C3CCCCC3)c2c1` yielded a melting point of 203 °C.
`CCN1CC=CC2=C1N1CN(OC)C=C1N=N2` gave a melting point of 167 to 168 °C.
`NS(=O)(=O)OCC1COc2cc(Cl)c(Cl)cc2O1` (centres undefined) gave a melting point of 109 to 111 °C.
`CCn1cc(C(=O)O)c(=O)c2c(F)c(F)c(N3CCNC(C)C3)c(F)c21` (centres undefined) showed a melting point of 220 to 222 °C.
In the case of `O=C(Cc1ccccc1F)N1C(=O)OC[C@H]1c1ccccc1`, the melting point was 110 to 111 °C.
Molecule `O=C1C(=O)c2ccccc2C2=C1SCC1(CCN(S(=O)(=O)c3c(Cl)nc4sccn34)CC1)O2` has a melting point of 265 to 267 °C.
`CC(CC1=Nc2cc(Cl)ccc2S(=O)(=O)N1)CC(C)(C)C` (centres undefined) gave a melting point of 243 to 244 °C.
In the case of `CCOC(=O)Cc1c2cc(F)ccc2n2c(-c3ccc(SC)cc3)nccc12`, the melting point was 59 to 62 °C.
Work on `NS(=O)(=O)c1cc(C(=O)O)cc(NCc2ccco2)c1-c1ccccc1` yielded a melting point of 167 to 169 °C.
In the case of `BrCC(Br)c1ccc(C(Br)CBr)cc1` (centres undefined), the melting point was 155 to 157 °C.
Molecule `Cn1c([N+](=O)[O-])cnc1C=Cc1cccc(C(N)=O)c1` has a melting point of 254 to 256 °C.
`CCCCNc1ccc(S(=O)(=O)N2CC(N(Cc3ccccc3)C(=O)OC(C)(C)C)C2)cc1` showed a melting point of 115 to 116 °C.
Molecule `CC(C)(C)c1cc2c(c(C(C)(C)C)c1)OC(C(F)(F)F)C(C(=O)O)=C2` (centres undefined) has a melting point of 172 to 175 °C.
Work on `CCOC(=O)c1cnc2sccc2c1Sc1ccc(C)cc1` yielded a melting point of 60 to 63 °C.
With `O=C(Cl)c1sc2cc(Oc3ccccc3)ccc2c1Cl` the melting point was 121 to 123 °C.
Molecule `Cc1c(-c2ccccc2)[nH]c(=O)n1C1CCN(Cc2cccc(I)c2)CC1` has a melting point of 269 to 271 °C.
For `Cc1cc(C)n(-c2nc(Nc3ccccc3)c3ccccc3n2)n1`, the melting point was 262 to 265 °C.
For `Cc1nc2n(c(=O)c1CCBr)CCCS2`, the melting point was 215 °C.
For `CCC1CCCCN1C(=O)Nc1ccccc1CCc1cc(C(C)(C)C)c(O)c(C(C)(C)C)c1` (centres undefined), the melting point was 137 to 138 °C.
For `CC1CC2C3CCC4=CC(=O)C=CC4(C)C3=CCC2(C)C1(O)C#N` (centres undefined), the melting point was 241 to 248 °C.
In the case of `CCOC(=O)c1ncn2c1CN(C)C(=O)c1c-2cccc1[N+](=O)[O-]`, the melting point was 212 to 213 °C.
Molecule `CCOc1cccc2cc(C(=O)c3cc(OC)ccc3OC)oc12` has a melting point of 55 to 57 °C.
Molecule `NC(=O)CNC(=O)c1ccc(-c2cccc3cc(COc4cccc(C(F)(F)F)c4)sc23)cc1` has a melting point of 164 to 165 °C.
For `O=C(Nc1ccccc1)C1=NOCCS1(=O)=O`, the melting point was 206 to 207 °C.
`O=C1CC(c2cccc(-n3ccnc3)c2)=Nc2ccc(-c3ccccc3F)cc2N1` gave a melting point of 179 to 182 °C.
For `CCCOc1ccccc1-c1[nH]c(=O)c(C#N)cc1C`, the melting point was 213 °C.
`CC1=C(C#N)C(c2ccccc2C(F)(F)F)c2c(ccnc2OC(C)C)N1` (centres undefined) showed a melting point of 207 to 209 °C.
`Cc1cc(O)c(C)c(C)c1OCc1ccccc1` showed a melting point of 101 to 103 °C.
For `CC12CCC3C(CC=C4CC(O)CCC43CSSCCO)C1CCC2=O` (centres undefined), the melting point was 129 to 130 °C.
Work on `Cc1c(NC(=O)CC(C)(C)C)c(C)c2c(c1-c1ccncc1)OCC2c1ccc(C(C)C)cc1` (centres undefined) yielded a melting point of 150 to 152 °C.
In the case of `Cn1cc(-c2cccc(C(F)(F)F)c2)c(=O)c(C2CCCCC2)c1`, the melting point was 174 to 175 °C.
`Cc1c(CNCC(C)(C)C)n(C)c2ccc(NC(=O)c3ccc(OCC4CC4)cc3)cc12` gave a melting point of 169 to 170 °C.
Work on `Cc1cc(C)nc(NC(=O)NS(=O)(=O)c2c(Cl)c(C)nn2C)n1` yielded a melting point of 191 to 194 °C.
`CC(C)(C)C1NN(c2ccc(N)cc2Br)C(=O)O1` (centres undefined) gave a melting point of 170 to 172 °C.
`Cc1cccc2nc(-c3c(F)cccc3F)[nH]c12` gave a melting point of 148 °C.
`O=C(O)CCCCCCCc1ccc(CCNC(=O)c2ccc(Cl)cc2)cc1` gave a melting point of 145 to 148 °C.
In the case of `O=C(Nc1ccc(C(=O)N2C[C@@H]3C[C@@H](O)CN3C(=O)c3ccccc32)cc1)c1ccccc1-c1ccccc1`, the melting point was 176 to 178 °C.
`COc1ccc2c(c1)NC1(CCN(C)CC1)c1cccn1-2` showed a melting point of 124 to 125 °C.
In the case of `CCOC(=O)c1cc2n(CC)c3ccc(Cl)cc3c(=O)n2n1`, the melting point was 256 to 257 °C.
In the case of `CC1(C)CC(n2cncc2C(=O)OC2CCCCC2)c2ccccc2O1` (centres undefined), the melting point was 128 °C.
`Cc1cccc(-c2ccc(S(=O)(=O)N3c4ccccc4CC3C(=O)NCc3ccc(CC(=O)O)cc3)cc2)c1` (centres undefined) showed a melting point of 118 to 120 °C.
Molecule `CCOC(=O)c1cn[nH]c1C(=O)CC(C)C` has a melting point of 105 to 107 °C.
For `CCC(=O)N[C@@H](C)C(=O)N1CCC[C@H]1C(=O)NC`, the melting point was 163 to 165 °C.
`CNC(=O)c1cccc(NC(=O)Cc2ccc(F)cc2)c1` showed a melting point of 155 to 156 °C.
Molecule `CC(=O)N1N=C(c2ccncc2)OC1(C)C` has a melting point of 117 to 118 °C.
In the case of `O=c1cc(-c2ccncc2)cc[nH]1`, the melting point was 263 to 265 °C.
`CC1(C)CCC(C)(C)c2cc(-c3csc(C=O)c3)ccc21` showed a melting point of 84 to 85 °C.
`CN(C)C=C(C#N)CC#N` gave a melting point of 49 °C.
With `O=C1c2ccccc2C(=O)N1CCSc1ccc(O)cc1` the melting point was 124 to 125 °C.
Work on `CC(=O)Nc1ccc2c(c1)SC1(CC1)C2=O` yielded a melting point of 195 to 196 °C.
In the case of `CC(C)Cc1ccccc1-n1c(=O)[nH]c2c(C(N)=O)nc(-c3cccc(O)c3)nc21`, the melting point was > 260 °C.
Work on `COc1ccc(C=Cc2ccc3cccc(O)c3n2)cc1` yielded a melting point of 108 to 110 °C.
`N#Cc1ccc(N(Cc2ccc(Br)cc2)n2cnnc2)cc1-c1ccc(O)cc1` showed a melting point of 222 to 224 °C.
For `OCCCNC1=Nc2ccccc2C1(O)c1cccc(Cl)c1` (centres undefined), the melting point was 164 to 165 °C.
`O=C1CC(c2ccc(O)cc2)Cc2ccccc21` (centres undefined) showed a melting point of 194 to 195 °C.
Work on `CNS(=O)(=O)c1sccc1CCl` yielded a melting point of 52 to 53 °C.
Molecule `OC1CC(c2ccc(-c3ccc(OCc4ccc(Br)cc4)cc3)cc2)Cc2ccccc21` (centres undefined) has a melting point of 178 °C.
Work on `O=C(O)CC(O)c1cccc(Cl)c1` (centres undefined) yielded a melting point of 94.5 to 95.5 °C.
With `O=C(CCCCCN1CCN(c2cccc(C(F)(F)F)c2)CC1)N1Cc2ccc(C(=O)N3CCCCC3)cc2C1` the melting point was 91 °C.
With `CCCCCCNc1nc[nH]c2nccc1-2` the melting point was 147 to 148 °C.
In the case of `O=C(O)c1nn(-c2ccc(Cl)cc2)c2c1[C@H]1CC[C@@H]2C1`, the melting point was 110 to 112 °C.
Work on `Clc1ncc(-c2ccco2)cn1` yielded a melting point of 134 to 136 °C.
For `N#Cc1ccc2c(c1)C(O)CCCO2` (centres undefined), the melting point was 85 to 86.5 °C.
